Reference: ChEMBL document CHEMBL1817644, “Rational design of SAM analogues targeting SAM-II riboswitch aptamer” (Bioorg Med Chem Lett, 2011)
Calls of active or inactive are those of the source. The calls are words filed in the database; no cut-off is given here.

Assays:
Assay type in all cases: nucleic-acid assay
Nucleic Acid [1] = experiment: Binding affinity to 2-amino purine labelled SAM2 riboswitch aptamer assessed as change in fluorescence at 5 mM to 10 mM at pH 8.3 by fluorescence binding assay
Nucleic Acid [2] = experiment: Binding affinity to SAM1 riboswitch aptamer assessed as change in heat at 0.5 mM at pH 7.5 by Isothermal titration calorimetry
Nucleic Acid [3] = experiment: Ratio of S-adenosylmethionine Kd to compound Kd for SAM2 riboswitch aptamer

SMILES | Activity (Nucleic Acid [1]) | Activity (Nucleic Acid [2]) | Kd (Nucleic Acid [1]) [µM] | Ratio (Nucleic Acid [3])
C[S+](CC[C@H](NC(=O)CNCCN)C(=O)O)C[C@H]1O[C@@H](n2cnc3c(N)ncnc32)[C@H](O)[C@@H]1O (stereo not given in full) | inactive | – | – | –
C[S+](CC[C@H](N)C(=O)NCCN)C[C@H]1O[C@@H](n2cnc3c(N)ncnc32)[C@H](O)[C@@H]1O (stereo not given in full) | – | inactive | 3.1 | –
C[S+](CC[C@H](NC(=O)CCN)C(=O)O)C[C@H]1O[C@@H](n2cnc3c(N)ncnc32)[C@H](O)[C@@H]1O (stereo not given in full) | inactive | – | – | –
C[S+](CC[C@H](NC(=O)CN)C(=O)O)C[C@H]1O[C@@H](n2cnc3c(N)ncnc32)[C@H](O)[C@@H]1O (stereo not given in full) | inactive | – | – | –
C[S+](CC[C@H](N)C(=O)[O-])C[C@H]1O[C@@H](n2cnc3c(N)ncnc32)[C@H](O)[C@@H]1O (stereo not given in full) [ADEMETIONINE] | Active | – | 6 | –
Nc1ncnc2c1ncn2[C@@H]1O[C@H](CSCC[C@H](N)C(=O)O)[C@@H](O)[C@H]1O | inactive | – | – | –
CN1/C(=C\c2cc[n+](CCCC(=O)N[C@@H](CC[S+](C)C[C@H]3O[C@@H](n4cnc5c(N)ncnc54)[C@H](O)[C@@H]3O)C(=O)O)c3ccccc23)Sc2ccccc21 (stereo not given in full) | Active | – | – | 2
